biological target: KRAS G12C and cRAF (Ras-binding domain) interaction (Homo sapiens (Human), UniProt P01116, C118S/C51S/C80L/G12C); assay: Inhibition of KRAS G12C and cRAF binding (AlphaScreen); details: GMPPNP-loaded KRAS G12C, 19-20 hours incubation with compound; read-out: IC50 (Inhibition of KRAS G12C and cRAF Binding)
In short: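 IC50 values come from 4-parameter nonlinear regression of AlphaScreen signal (680 nm excitation, 570 nm emission). Compound plates sat 19-20 h at room temperature before RBD and donor/acceptor beads were added in Hepes pH 7.4 buffer with 150 mM NaCl, 5 mM MgCl2, 2% DMSO for 60-90 min; biotin-AviTag-GST replaced RBD to flag assay-technology interferers.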

KRAS G12C and cRAF (Ras-binding domain) interaction, sequence (P01116 other isoform, or with tags, fused parts or gaps G12C/C51S/C80L/C118S): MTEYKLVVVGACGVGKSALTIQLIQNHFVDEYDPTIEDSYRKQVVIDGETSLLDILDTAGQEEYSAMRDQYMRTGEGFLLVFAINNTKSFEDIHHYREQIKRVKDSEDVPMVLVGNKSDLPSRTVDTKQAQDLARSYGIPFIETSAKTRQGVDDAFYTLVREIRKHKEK

Question: How did the IC50 turn out when `COC(=O)/C=C\C(=O)N1CCC(N(C)c2nc(OC[C@@H]3CCCN3C)nc3c2CCN(c2cccc4cccc(Cl)c24)C3)C1` (stereo partly drawn) [Example 7, methyl (Z)-4-(3-((7-(8-chloronaphthalen-1-yl)-2-(((S)-1-methylpyrrolidin-2-yl)methoxy)-5,6,7,8-tetrahydropyrido[3,4-d]pyrimidin-4-yl)(methyl)amino)pyrrolidin-1-yl)-4-oxobut-2-enoate] was run?
Answer: > 500 nM

Question: How did the IC50 turn out when `CCN(CCNC(=O)/C=C/C(=O)OC)c1nc(OC[C@@H]2CCCN2C)nc2c1CCN(c1cccc3cccc(Cl)c13)C2` [Example 12, methyl(S,E)-4-((2-((7-(8-chloronaphthalen-1-yl)-2-((1-methylpyrrolidin-2-yl)methoxy)-5,6,7,8-tetrahydropyrido[3,4-d]pyrimidin-4-yl)(ethyl)amino)ethyl)amino)-4-oxobut-2-enoate] was run?
Answer: > 500 nM

Question: How did the IC50 turn out when `COCCN1CC[C@@H]1/C=C/C(=O)N1CC[C@@H](N(C)c2nc(OC[C@@]34CCCN3C[C@H](F)C4)nc3c(F)c(-c4cccc5ccc(F)c(Cl)c45)ncc23)C1` [Example 212, (E)-1-((R)-3-((7-(8-chloro-7-fluoronaphthalen-1-yl)-8-fluoro-2-(((2R,7aS)-2-fluorotetrahydro-1H-pyrrolizin-7a(5H)-yl)methoxy)pyrido[4,3-d]pyrimidin-4-yl)(methyl)amino)pyrrolidin-1-yl)-3-((R)-1-(2-methoxyethyl)azetidin-2-yl)prop-2-en-1-one] was run?
Answer: 10 to 100 nM

Question: For `COC(=O)/C=C/C(=O)N1CC[C@@H](N(C)c2nc(OC[C@@H]3CCCN3C)nc3c(F)c(-c4cccc5cccc(Cl)c45)ncc23)C1` [Example 27, methyl(E)-4-((R)-3-((7-(8-chloronaphthalen-1-yl)-8-fluoro-2-(((S)-1-methylpyrrolidin-2-yl)methoxy)pyrido[4,3-d]pyrimidin-4-yl)(methyl)amino)pyrrolidin-1-yl)-4-oxobut-2-enoate], which IC50 is on record?
Answer: < 10 nM

Question: How did the IC50 turn out when `C#Cc1c(F)ccc2cccc(-c3ncc4c(N(C)[C@@H]5CCN(C(=O)C=C)C5)nc(OC[C@@]56CCCN5C[C@H](F)C6)nc4c3F)c12` [Example 187, 1-((R)-3-((7-(8-ethynyl-7-fluoronaphthalen-1-yl)-8-fluoro-2-(((2R,7aS)-2-fluorohexahydro-1H-pyrrolizin-7a-yl)methoxy)pyrido[4,3-d]pyrimidin-4-yl)(methyl)amino)pyrrolidin-1-yl)prop-2-en-1-one] was run?
Answer: < 10 nM

Question: For `C=CC(=O)C1CCN(c2nc(OC[C@@H]3CCCN3C)nc3c2CCN(c2cccc4cccc(Cl)c24)C3)CC1` [Example 42, (S)-1-(1-(7-(8-chloronaphthalen-1-yl)-2-((1-methylpyrrolidin-2-yl)methoxy)-5,6,7,8-tetrahydropyrido[3,4-d]pyrimidin-4-yl)piperidin-4-yl)prop-2-en-1-one], which IC50 is on record?
Answer: 10 to 100 nM

Question: `CN(c1nc(OC[C@@H]2CCCN2C)nc2c1CCN(c1cccc3cccc(Cl)c13)C2)C1CCN(C(=O)/C=C/C(=O)O)C1` (stereo partly drawn) [Example 8, (E)-4-(3-((7-(8-chloronaphthalen-1-yl)-2-(((S)-1-methylpyrrolidin-2-yl)methoxy)-5,6,7,8-tetrahydropyrido[3,4-d]pyrimidin-4-yl)(methyl)amino)pyrrolidin-1-yl)-4-oxobut-2-enoic acid] was tested. Which IC50 did it give?
Answer: 100 to 500 nM

Question: With `Cc1c(F)ccc2cccc(-c3ncc4c(N(C)[C@@H]5CCN(C(=O)/C=C/[C@H]6CCN6C)C5)nc(OC[C@@]56CCCN5C[C@H](F)C6)nc4c3F)c12` [Example 206, (E)-1-((R)-3-((8-fluoro-7-(7-fluoro-8-methylnaphthalen-1-yl)-2-(((2R,7aS)-2-fluorotetrahydro-1H-pyrrolizin-7a(5H)-yl)methoxy)pyrido[4,3-d]pyrimidin-4-yl)(methyl)amino)pyrrolidin-1-yl)-3-((R)-1-methylazetidin-2-yl)prop-2-en-1-one] as the compound, how does the IC50 read?
Answer: 10 to 100 nM

Question: `Cc1noc(/C=C/C(=O)N2CC[C@@H](N(C)c3nc(OC[C@@]45CCCN4C[C@H](F)C5)nc4c3CCN(c3cccc5cccc(Cl)c35)C4)C2)n1` [Example 178, (E)-1-((R)-3-((7-(8-chloronaphthalen-1-yl)-2-(((2R,7aS)-2-fluorohexahydro-1H-pyrrolizin-7a-yl)methoxy)-5,6,7,8-tetrahydropyrido[3,4-d]pyrimidin-4-yl)(methyl)amino)pyrrolidin-1-yl)-3-(3-methyl-1,2,4-oxadiazol-5-yl)prop-2-en-1-one] was tested. Which IC50 did it give?
Answer: < 10 nM

Question: For `Cc1c(F)ccc2c(-c3ncc4c(N(C)[C@@H]5CCN(C(=O)/C=C/CN(C)C)C5)nc(OC[C@@]56CCCN5C[C@H](F)C6)nc4c3F)cccc12` [Example 281, (E)-4-(dimethylamino)-1-((R)-3-((8-fluoro-7-(6-fluoro-5-methylnaphthalen-1-yl)-2-(((2R,7aS)-2-fluorotetrahydro-1H-pyrrolizin-7a(5H)-yl)methoxy)pyrido[4,3-d]pyrimidin-4-yl)(methyl)amino)pyrrolidin-1-yl)but-2-en-1-one], which IC50 is on record?
Answer: 100 to 500 nM

same assay, conditions: additional exemplary compounds; KRAS G12C and cRAF binding; read-out: RAF1 RBD IC50

Question: For `COCCN(C)C/C=C/S(=O)(=O)CCN(C)c1nc(OCC23CCCN2CCC3)nc2c(F)c(-c3cccc4cccc(Cl)c34)ncc12`, which IC50 is on record?
Answer: 10 to 100 nM

Question: `C=CC(=O)N1CC[C@@H](N(C)c2nc(OC[C@]34CCCN3C[C@@H](F)C4)nc3c2CCN(c2cccc4cccc(Cl)c24)C3)C1` was tested. Which IC50 did it give?
Answer: > 500 nM

Question: How did the IC50 turn out when `C=CS(=O)(=O)CCN(C)c1nc(OC[C@@H]2CCCN2C)nc2c1CCN(c1cccc3ccc(F)c(Cl)c13)C2` was run?
Answer: 100 to 500 nM

Question: For `O=C(/C=C/CN1[C@@H]2CC[C@H]1COC2)N1CCN(c2nc(OC[C@@]34CCCN3C[C@H](F)C4)nc3c(F)c(-c4cccc5cccc(Cl)c45)ncc23)C2(CC2)C1`, which IC50 is on record?
Answer: > 500 nM

Question: With `CN(C)C/C=C/C(=O)N1CC(CN(C)c2nc(OCC34CCCN3CCC4)nc3c(F)c(-c4cccc5cccc(Cl)c45)ncc23)C1` as the compound, how does the IC50 read?
Answer: 10 to 100 nM

Question: With `C=CC(=O)N1CC[C@@H](N(C)c2nc(OC[C@@]34CCCN3C[C@H](F)C4)nc3c2CCN(c2cccc4cccc(Cl)c24)C3)C1` as the compound, how does the IC50 read?
Answer: 100 to 500 nM

Question: For `C=CS(=O)(=O)[C@@H]1CC[C@H](N(C)c2nc(OCC34CCCN3CCC4)nc3c2CCN(c2cccc4cccc(Cl)c24)C3)C1`, which IC50 is on record?
Answer: > 500 nM

Question: With `C=CC(=O)N1C[C@H](Nc2nc(OC[C@@]34CCCN3C[C@H](F)C4)nc3c(F)c(-c4cccc5cccc(Cl)c45)ncc23)[C@@H](C)C1` as the compound, how does the IC50 read?
Answer: > 500 nM

Question: How did the IC50 turn out when `C=CC(=O)[C@@H](C)CN(C)c1nc(OC[C@@H]2CCCN2C)nc2c1CCN(c1cccc3ccccc13)C2` was run?
Answer: 10 to 100 nM

Question: With `CCOC/C=C/S(=O)(=O)CCN(C)c1nc(OC[C@@H]2CCCN2C)nc2c(F)c(-c3cccc4cccc(Cl)c34)ncc12` as the compound, how does the IC50 read?
Answer: > 500 nM

Question: For `CN(CCC1CN(C#N)C1)c1nc(OCC23CCCN2CCC3)nc2c1CCN(c1cccc3cccc(Cl)c13)C2`, which IC50 is on record?
Answer: 100 to 500 nM

Question: `C=CC(=O)N1C[C@H](N(C)c2nc(OCC34CCCN3CCC4)nc3c2CCN(c2cccc4cccc(Cl)c24)C3)[C@H]1C` was tested. Which IC50 did it give?
Answer: > 500 nM

Question: How did the IC50 turn out when `C=CC(=O)N1CC[C@@H](Nc2nc(OC[C@@]34CCCN3C[C@H](F)C4)nc3c(F)c(-c4cccc5cccc(Cl)c45)ncc23)C1` was run?
Answer: > 500 nM

Question: `C=CC(=O)N1CC[C@@H](N(C)c2nc(OC[C@@]34CCCN3C[C@H](F)C4)nc3c2CCN(c2cccc4ccc(F)c(Cl)c24)C3)C1` was tested. Which IC50 did it give?
Answer: 10 to 100 nM

Question: With `Cc1nccc(/C=C/C(=O)N2CCC(N(C)c3nc(OC[C@@]45CCCN4C[C@H](F)C5)nc4c(F)c(-c5cccc6cccc(Cl)c56)ncc34)CC2)n1` as the compound, how does the IC50 read?
Answer: > 500 nM

Question: Which IC50 does the source give for `C=CS(=O)(=O)C1CCC(N(C)c2nc(OCC34CCCN3CCC4)nc3c2CCN(c2cccc4cccc(Cl)c24)C3)C1` (stereo not drawn) here?
Answer: 10 to 100 nM

Question: With `C=CS(=O)(=O)[C@H]1CC[C@@H](N(C)c2nc(OCC34CCCN3CCC4)nc3c2CCN(c2cccc4cccc(Cl)c24)C3)C1` as the compound, how does the IC50 read?
Answer: 10 to 100 nM

— US20250019387A1 (Frontier Medicines Corporation, priority 0001, published 2025)
